As usually defined, the IC50 is the concentration needed to halve the response being measured.

A short description of this assay: Antagonist activity at human CXCR3 expressed in mouse L1.2 cells assessed as inhibition of IP10-induced chemotaxis after 4 hrs.
`O=C(NCC1CC1)c1ccc(CN(Cc2cccc(Cl)c2)S(=O)(=O)c2ccc(Cl)cc2)cc1` [4-((4-chloro-N-(3-chlorobenzyl)phenylsulfonamido)methyl)-N-(cyclopropylmethyl)benzamide]: the IC50 came to 940 nM.

Turning to `O=C(NCc1cccc(Cl)c1)c1ccc(CN(Cc2ccccn2)S(=O)(=O)c2ccc(Cl)cc2)cc1` [4-((4-chloro-N-(pyridin-2-ylmethyl)phenylsulfonamido)methyl)-N-(3-chlorobenzyl)benzamide], the IC50 amounted to 85 nM.

With `N#Cc1ccc(S(=O)(=O)N(Cc2ccc(C(=O)O)c(F)c2)Cc2ccccn2)cc1` [4-((4-cyano-N-(pyridin-2-ylmethyl)phenylsulfonamido)methyl)-2-fluorobenzoicacid], the IC50 was found to be 1080 nM.

For `O=C(NCC1CC1)c1ccc(CN(Cc2ccccc2)S(=O)(=O)c2ccc(OC(F)(F)F)cc2)cc1` [4-((N-benzyl-4-(trifluoromethoxy)phenylsulfonamido)methyl)-N-(cyclopropylmethyl)benzamide], the half-inhibitory concentration (IC50) is 5580 nM.

For the compound `O=C(NCC1CC1)c1ccc(CN(Cc2ccccc2)S(=O)(=O)c2ccc(Cl)cc2)cc1` [4-((N-benzyl-4-chlorophenylsulfonamido)methyl)-N-(cyclopropylmethyl)benzamide], the 50% inhibitory concentration (IC50) amounted to 1980 nM.

With `O=C(O)c1ccc(CN(Cc2ccccc2)S(=O)(=O)c2ccc(Cl)cc2)cc1` [4-((N-benzyl-4-chlorophenylsulfonamido)methyl)benzoicacid], the 50% inhibitory concentration (IC50) amounted to 2940 nM.

Consider `CCOc1ccc(S(=O)(=O)N(Cc2ccccc2)Cc2ccc(C(=O)NCC3CC3)cc2)cc1` [4-((N-benzyl-4-ethoxyphenylsulfonamido)methyl)-N-(cyclopropylmethyl)benzamide], for which the IC50 was 673 nM.

As to `COc1ccc(S(=O)(=O)N(Cc2ccccc2)Cc2ccc(C(=O)NCC3CC3)cc2)cc1` [4-((N-benzyl-4-methoxyphenylsulfonamido)methyl)-N-(cyclopropylmethyl)benzamide], the half-inhibitory concentration (IC50) was 697 nM.

Turning to `COc1ccc(S(=O)(=O)N(Cc2ccccc2)Cc2ccc(C(=O)O)cc2)cc1` [4-((N-benzyl-4-methoxyphenylsulfonamido)methyl)benzoicacid], the half-inhibitory concentration (IC50) worked out at 6440 nM.

On to `O=S(=O)(c1ccc(Cl)cc1)N(Cc1ccc(-c2nnn[nH]2)c(F)c1)Cc1ccccn1` [4-chloro-N-(3-fluoro-4-(1H-tetrazol-5-yl)benzyl)-N-(pyridin-2-ylmethyl)benzenesulfonamide], for which the IC50 amounted to 440 nM.

In the case of `O=S(=O)(c1ccc(Cl)cc1)N(CCc1cc2ccccc2cn1)Cc1ccc(-c2nnn[nH]2)cc1` [N-(4-(1H-tetrazol-5-yl)benzyl)-4-chloro-N-(2-(isoquinolin-3-yl)ethyl)benzenesulfonamide], the IC50 is 911 nM.

For the compound `CCOc1ccc(S(=O)(=O)N(Cc2ccc(-c3nnn[nH]3)cc2)Cc2ccccn2)cc1` [N-(4-(1H-tetrazol-5-yl)benzyl)-4-ethoxy-N-(pyridin-2-ylmethyl)benzenesulfonamide], the half-maximal inhibitory concentration (IC50) came out at 540 nM.

For `CC(C)(C)c1nc(CCN(Cc2ccc(-c3nnn[nH]3)cc2)S(=O)(=O)c2ccc(Cl)cc2)no1` [N-(4-(1H-tetrazol-5-yl)benzyl)-N-(2-(5-tert-butyl-1,2,4-oxadiazol-3-yl)ethyl)-4-chlorobenzenesulfonamide], the IC50 amounted to 254 nM.

With `COc1ccc(S(=O)(=O)N(Cc2ccc(C(=O)NCC3CC3)cc2)Cc2cccnc2)cc1` [N-(cyclopropylmethyl)-4-((4-methoxy-N-(pyridin-3-ylmethyl)phenylsulfonamido)methyl)benzamide], the 50% inhibitory concentration (IC50) worked out at 1150 nM.

Take `COc1ccc(S(=O)(=O)N(Cc2ccccc2)Cc2ccc(C(=O)NCc3ccccc3)cc2)cc1` [N-benzyl-4-((N-benzyl-4-methoxyphenylsulfonamido)methyl)benzamide]: the 50% inhibitory concentration (IC50) amounted to 347 nM.

The values above are taken from BindingDB's records for doi:10.1016/j.bmcl.2010.04.113 (Merck Serono, 2010).
